Test results taken from ChEMBL document CHEMBL5512599, “Synthetic non-toxic anti-biofilm agents as a strategy in combating bacterial resistance” (Eur J Med Chem, 2023).
In brackets after ≈: the same amount, converted by molar mass.

Columns and labels:
Pseudomonas aeruginosa [1] = assay: Antibiofilm activity against Pseudomonas aeruginosa PAO1 assessed as inhibition of biofilm formation incubated at 100 uM incubated for 24 hrs by crystal violet staining based analysis relative to control; assay type: functional; set-up: scale not given: the % may be the effect or the level left
Pseudomonas aeruginosa [2] = assay: Antibiofilm activity against Pseudomonas aeruginosa PAO1 assessed as inhibition of biofilm formation at 64 microg/ml incubated for 24 hrs by BacTiter Glo reagent based luminescence analysis relative to control; assay type: functional; set-up: scale not given: the % may be the effect or the level left; conditions: dose 64 µg/ml
[3] = Inhibition of quorum sensing system in Pseudomonas aeruginosa PAO1 assessed as inhibition of pyocyanin production at 256 ug/ml incubated for 24 hrs by absorbance based assay; conditions: dose 256.0 µg/ml
Pseudomonas aeruginosa [4] = assay: Antibiofilm activity against Pseudomonas aeruginosa PAO1 assessed as inhibition of biofilm formation incubated at 15 uM relative to control; assay type: functional; set-up: scale not given: the % may be the effect or the level left
Pseudomonas aeruginosa [5] = assay: Antibacterial activity against Pseudomonas aeruginosa 27853 assessed as inhibition of bacterial growth at 32 microg/ml incubated for 24 hrs in presence of Clarithromycin by absorbance based microplate reader analysis relative to control; assay type: functional; set-up: scale not given: the % may be the effect or the level left; conditions: dose 32 µg/ml
Pseudomonas aeruginosa [6] = assay: Antibacterial activity against Pseudomonas aeruginosa 27853 assessed as inhibition of bacterial growth at 32 microg/ml incubated for 24 hrs in presence of Ciprofloxacin by absorbance based microplate reader analysis relative to control; assay type: functional; set-up: scale not given: the % may be the effect or the level left; conditions: dose 32 µg/ml
Pseudomonas aeruginosa [7] = assay: Antibiofilm activity against Pseudomonas aeruginosa PA14 assessed as inhibition of biofilm formation incubated for 24 hrs by microscopic analysis; assay type: functional, organism-based; conditions: PA14, 24 h
Enterococcus faecalis [8] = assay: Antibiofilm activity against Enterococcus faecalis ATCC 29212 assessed as biofilm eradication incubated for 20 mins by crystal violet staining based analysis; assay type: functional
Enterococcus faecalis [9] = assay: Antibacterial activity against Enterococcus faecalis ATCC 29212 assessed as bacterial growth inhibition incubated for 15 to 18 hrs by Muller hinton broth based dilution assay; assay type: functional; conditions: time 15-18 hrs
Staphylococcus aureus [10] = assay: Antibacterial activity against Staphylococcus aureus ATCC 25923 assessed as reduction in bacterial growth incubated for 18 to 24 hrs by broth microdilution method; assay type: functional; conditions: time 18-24 hrs
[11] = Inhibition of Staphylococcus aureus sortase A by FRET assay
[12] = test system: Staphylococcus epidermidis; assay: Antibacterial activity against Staphylococcus epidermidis RP62A assessed as reduction in bacterial growth incubated for 18 to 20 hrs by broth microdilution assay; assay type: functional; conditions: time 18-20 hrs
Staphylococcus aureus [13] = assay: Antibacterial activity against Staphylococcus aureus ATCC 29213 assessed as reduction in bacterial growth incubated for 18 to 24 hrs by broth microdilution method; assay type: functional; conditions: time 18-24 hrs
Staphylococcus aureus [14] = assay: Antibacterial activity against Staphylococcus aureus ATCC 6538 assessed as reduction in bacterial growth incubated for 18 to 24 hrs by broth microdilution method; assay type: functional; conditions: time 18-24 hrs
[15] = biological target: T1, Transcriptional regulator MvfR (Pseudomonas aeruginosa PA14, UniProt A0A072ZLE6); assay: Antagonist activity at PqsR in wild-type Pseudomonas aeruginosa PAO1-L
T1 sequence (A0A072ZLE6 whole entry): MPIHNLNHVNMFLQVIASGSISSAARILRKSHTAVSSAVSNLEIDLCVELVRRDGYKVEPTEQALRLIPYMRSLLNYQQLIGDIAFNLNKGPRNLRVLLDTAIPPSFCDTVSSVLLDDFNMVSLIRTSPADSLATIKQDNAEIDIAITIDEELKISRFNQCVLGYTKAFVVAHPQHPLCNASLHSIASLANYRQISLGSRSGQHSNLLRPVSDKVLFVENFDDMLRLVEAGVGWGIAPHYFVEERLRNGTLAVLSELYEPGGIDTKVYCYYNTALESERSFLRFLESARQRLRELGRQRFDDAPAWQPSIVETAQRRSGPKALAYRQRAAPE

Staphylococcus aureus [16] = assay: Antibiofilm activity against Methicillin-resistant Staphylococcus aureus ATCC BAA-4A assessed as inhibition of biofilm formation; assay type: functional, organism-based
Pseudomonas aeruginosa [17] = assay: Antibiofilm activity against Pseudomonas aeruginosa PAO1 assessed as inhibition of biofilm formation incubated at 50 uM incubated for 24 hrs by crystal violet staining based analysis relative to control; assay type: functional; set-up: scale not given: the % may be the effect or the level left
Staphylococcus aureus [18] = assay: Antibiofilm activity against Staphylococcus aureus ATCC 25923 at 25 ug/ml measured after 24 hrs by crystal violet staining based analysis relative to control; assay type: functional; conditions: dose 25 µg/ml
[19] = Inhibition of quorum sensing system in Pseudomonas aeruginosa PA14 assessed as inhibition of pyocyanin production
Pseudomonas aeruginosa [20] = assay: Antibiofilm activity against Pseudomonas aeruginosa ATCC 27853 assessed as inhibition of biofilm formation at 0.5 times of MIC by crystal violet staining based analysis relative to control; assay type: functional; set-up: scale not given: the % may be the effect or the level left
[21] = test system: Staphylococcus epidermidis; assay: Antibiofilm activity against Staphylococcus epidermidis assessed as inhibition of biofilm formation at 40 uM measured after 24 hrs by confocal laser scanning microscopy analysis relative to control; assay type: functional; set-up: scale not given: the % may be the effect or the level left
Pseudomonas aeruginosa [22] = assay: Anti-motility activity against Pseudomonas aeruginosa PAO1 assessed as reduction in swarming at 20 uM incubated for 16 hrs by crystal violet staining analysis relative to control; assay type: functional; set-up: scale not given: the % may be the effect or the level left
Pseudomonas aeruginosa [23] = assay: Antibiofilm activity against Pseudomonas aeruginosa ATCC 10145 assessed as reduction in biofilm formation at 20 uM incubated for 24 hrs by absorbance based assay relative to control; assay type: functional; set-up: scale not given: the % may be the effect or the level left
Staphylococcus aureus [24] = assay: Antibiofilm activity against Staphylococcus aureus ATCC 33862 assessed as reduction in biofilm formation at 20 uM incubated for 24 hrs by absorbance based assay relative to control; assay type: functional; set-up: scale not given: the % may be the effect or the level left
[25] = biological target: T1, Transcriptional regulator MvfR; assay: Antagonist activity at PqsR in wild-type Pseudomonas aeruginosa PAO1 assessed as reduction in AQ level at 0.2 uM by LCMS/MS analysis
[26] = Inhibition of Quorum sensing system Las in Pseudomonas aeruginosa PAO1 assessed as reduction in interaction with LasR regulator
Staphylococcus aureus [27] = assay: Antibiofilm activity against methicillin-resistant Staphylococcus aureus assessed as inhibition of biofilm formation incubated for overnight by crystal violet staining based microtiter plate assay; assay type: functional, organism-based
Staphylococcus aureus [28] = assay: Antimicrobial activity against Staphylococcus aureus ATCC 25923 assessed as reduction in bacterial growth at 0.25 uM incubated for 16 hrs by broth dilution method relative to control; assay type: functional; set-up: scale not given: the % may be the effect or the level left
Staphylococcus aureus [29] = assay: Antimicrobial activity against Staphylococcus aureus ATCC 25923 assessed as reduction in bacterial growth at 0.12 uM incubated for 16 hrs by broth dilution method relative to control; assay type: functional; set-up: scale not given: the % may be the effect or the level left
Staphylococcus aureus [30] = assay: Antimicrobial activity against Staphylococcus aureus ATCC 25923 assessed as reduction in bacterial growth at 0.5 uM incubated for 16 hrs by broth dilution method relative to control; assay type: functional; set-up: scale not given: the % may be the effect or the level left

Compound: O=C(CCCNc1ccc(Cl)cc1)NC1CCOC1=O (configuration not stated)
- Activity (Pseudomonas aeruginosa [1]): 70%

Compound: O=C(CCCCCOc1cccc(C(F)(F)F)c1)NNC(=O)Cn1c(=O)oc2ccccc21
- Activity (Pseudomonas aeruginosa [2]): 45%
- inhibition [3]: 63%

Compound: O=C(CSC(=S)N[C@@H]1CCOC1=O)CC(=O)Nc1cccc2ccccc12
- Activity (Pseudomonas aeruginosa [4]): 35%

Compound: COc1ccc(OCCCCCCCC(=O)NNC(=O)Cn2c(=O)oc3ncccc32)cc1
- Activity (Pseudomonas aeruginosa [5]): 49.79%
- Activity (Pseudomonas aeruginosa [6]): 48.27%
- Activity (Pseudomonas aeruginosa [2]): 40%
- inhibition [3]: 53%

Compound: CCCCCCN(CCCCCC)C(=O)CCCc1c[nH]c(N)n1
- IC50 (Pseudomonas aeruginosa [7]): 60 µM

Compound: O=[N+]([O-])c1ccc(-c2csc(-c3ccc(-c4cnc(-c5ccccc5)s4)cc3)n2)cc1
- MBEC (Enterococcus faecalis [8]): 0.002 µg/mL
- MIC (Enterococcus faecalis [9]): 0.062 µg/mL (≈ 0.14 µM)

Compound: CC(=O)/C(=N\Nc1ccc([N+](=O)[O-])cc1)C(=O)O
- MIC (Staphylococcus aureus [10]): > 270 µM
- IC50 [11]: 57 µM
- MIC [12]: > 270 µM
- MIC (Staphylococcus aureus [13]): > 270 µM
- MIC (Staphylococcus aureus [14]): > 270 µM

Compound: COc1ccc(-c2csc(-c3ccc(-c4cnc(-c5ccccc5)s4)cc3)n2)cc1
- MBEC (Enterococcus faecalis [8]): 0.004 µg/mL
- MIC (Enterococcus faecalis [9]): 0.062 µg/mL (≈ 0.145 µM)

Compound: CC(=O)/C(=N\Nc1cccc(Cl)c1)C(=O)O
- MIC (Staphylococcus aureus [10]): > 270 µM
- IC50 [11]: 87 µM
- MIC [12]: > 270 µM
- MIC (Staphylococcus aureus [13]): > 270 µM
- MIC (Staphylococcus aureus [14]): > 270 µM

Compound: CCCCCCCCCc1nc2cc(F)ccc2c(=O)n1N
- IC50 [15]: 1.2 µM

Compound: CCCCCc1ccc(C(=O)NCCn2cc(CCCCCc3[nH]cnc3-c3ccc4c(c3)OCO4)nn2)cc1
- IC50 (Staphylococcus aureus [16]): 3.7 µM

Compound: O=C(CCCCCCCCCN=C=S)CC(=O)N[C@H]1CCOC1=O
- Activity (Pseudomonas aeruginosa [17]): 50%

Compound: Cc1nn(C)c([N-]C(=O)c2ccc(Cl)cc2)c1[N+]#N
- Activity (Staphylococcus aureus [18]): 69%

Compound: NCCCCCCCCCCCCNc1ccnc2cc(Cl)ccc12
- IC50 [19]: 12 µM
- Activity (Pseudomonas aeruginosa [20]): 85%

Compound: N#Cc1ccc(-c2csc(-c3ccc(-c4cnc(-c5ccccc5)s4)cc3)n2)cc1
- MBEC (Enterococcus faecalis [8]): 0.002 µg/mL
- MIC (Enterococcus faecalis [9]): 0.062 µg/mL (≈ 0.147 µM)

Compound: c1ccc(-c2csc(-c3ccc(-c4cnc(-c5ccccc5)s4)cc3)n2)cc1
- MBEC (Enterococcus faecalis [8]): 0.002 µg/mL
- MIC (Enterococcus faecalis [9]): 0.125 µg/mL (≈ 0.315 µM)

Compound: CN(C)c1cccc(/C=N/N=C2\SCC(=O)N2c2ccc(S(N)(=O)=O)cc2)c1
- Activity [21]: 70%
- Activity (Pseudomonas aeruginosa [22]): 70%

Compound: CCCCCCCCCCCC(=O)Nc1cc(=O)c2ccccc2[nH]1
- Activity (Pseudomonas aeruginosa [23]): >=50%
- Activity (Staphylococcus aureus [24]): >=50%

Compound: N#CCc1ccc(OC[C@H](O)Cn2cnc3ccc(Cl)cc3c2=O)cc1
- IC50 [25]: 1.1 µM

Compound: CCCCCc1ccc(C(=O)NCCn2cc(CCCCCc3[nH]cnc3-c3cnc4ccccc4c3)nn2)cc1
- IC50 (Staphylococcus aureus [16]): 3.7 µM

Compound: CCCCCCCCCCCC(=O)Nc1c(N)[nH]c2ccccc2c1=O
- Activity (Pseudomonas aeruginosa [23]): >=50%
- Activity (Staphylococcus aureus [24]): >=50%

Compound: CCOC(=O)C1S/C(=N\N=C\c2cccc(Cl)c2)N(c2ccc(S(N)(=O)=O)cc2)C1=O (configuration not stated)
- Activity [21]: 80%
- Activity (Pseudomonas aeruginosa [22]): 72%

Compound: Clc1ccc(-c2csc(-c3ccc(-c4cnc(-c5ccccc5)s4)cc3)n2)cc1
- MBEC (Enterococcus faecalis [8]): 0.016 µg/mL
- MIC (Enterococcus faecalis [9]): 0.032 µg/mL (≈ 0.0742 µM)

Compound: CCCCCCCCCC(=O)NC1CCCC1 [N-CYCLOPENTYLDECANAMIDE]
- IC50 [26]: 80 µM

Compound: C/C(=C\c1ccc2ccccc2c1)Cn1cc(CCCCCc2c[nH]c(N)n2)nn1
- IC50 (Staphylococcus aureus [27]): < 10 µM

Compound: Cc1ccc(C(=O)c2nn(-c3nc(-c4ccccc4)c(-c4sc(-n5nc(C(=O)c6ccc(C(F)(F)F)cc6)c(C(N)=O)c5N)nc4-c4ccccc4)s3)c(N)c2C(N)=O)cc1
- Activity (Staphylococcus aureus [28]): 50%
- Activity (Staphylococcus aureus [29]): 35%
- Activity (Staphylococcus aureus [30]): 77%

Compound: NCCCCCCCCCCCCNc1ccnc2cc(C(F)(F)F)ccc12
- IC50 [19]: 50 µM
- Activity (Pseudomonas aeruginosa [20]): 75%
